# Assay results from paper PMC10579241, “Impact of trifluoromethyl and sulfonyl groups on the biological activity of novel aryl-urea derivatives: synthesis, in-vitro, in-silico and SAR studies” (Scientific Reports, 2023).
# Where two headings read alike, the source gives them in different places. Marks after values point to notes of the source that are not given here.
# Tests used:
# Bacillus mycoides [1] = experiment: microbe, parasite or virus in culture; type: cell-based
# Escherichia coli [2] = experiment: Agar well diffusion, E. coli; type: cell-based; details: Escherichia coli, read-out: Inhibition zones diameter
# Candida albicans [3] = experiment: Agar well diffusion, C. albicans; type: cell-based
# Bacillus mycoides [4] = experiment: microbe, parasite or virus in culture; type: cell-based; remark: listed apart in the source
# Escherichia coli [5] = experiment: MIC by serial dilution (agar wells), E. coli; type: cell-based
# Candida albicans [6] = experiment: MIC by serial dilution (agar wells), C. albicans; type: cell-based
# [7] = tested on: human lung carcinoma (A549); experiment: cells; type: cell-based
# colon cancer (HCT116) = experiment: cells; type: cell-based; details: Homo sapiens
# prostate cancer (PC3) = experiment: cells; type: cell-based; details: Homo sapiens, 48 h
# skin cancer (A431) = experiment: cells; type: cell-based; details: Homo sapiens, A-431, 100 μg/mL, 48 h
# [8] = tested on: hepatocellular carcinoma cell line (HePG2); experiment: cells; type: cell-based; details: Homo sapiens, 48 h
# [9] = tested on: osteosarcoma cell line (HOS); experiment: cells; type: cell-based; details: Homo sapiens, 48 h, 100 μg/mL
# [10] = tested on: pancreatic cancer cell line (PACA2); experiment: cells; type: cell-based; details: Homo sapiens, PaCa-2, 48 h
# in vitro = type: cell-based; details: human, BJ1 normal skin fibroblast cells, 100 μg/mL
# EGFR = experiment: qRT-PCR, EGFR in A549 cells; type: cell-based, human; details: versus negative samples
# KRAS = experiment: qRT-PCR, KRAS in A549 cells; type: cell-based, human; details: versus negative samples
# A549 [11] = experiment: DNA damage, comet assay, A549; type: cell-based, human
# A549 [12] = experiment: DNA fragmentation assay, A549; type: cell-based, human
# [13] = read-out: Minimum inhibition concentration (MIC)
# [14] = 0.00488 mg/mL, 150 µL in DMSO, 15 mm agar well
# [15] = 0.00975 mg/mL, 150 µL in DMSO, 15 mm agar well
# [16] = 0.0195 mg/mL, 150 µL in DMSO, 15 mm agar well
# [17] = 0.0391 mg/mL, 150 µL in DMSO, 15 mm agar well
# [18] = 0.0781 mg/mL, 150 µL in DMSO, 15 mm agar well
# [19] = 0.1563 mg/mL, 150 µL in DMSO, 15 mm agar well
# [20] = 0.3125 mg/mL, 150 µL in DMSO, 15 mm agar well
# [21] = 0.625 mg/mL, 150 µL in DMSO, 15 mm agar well
# [22] = 1.25 mg/mL, 150 µL in DMSO, 15 mm agar well
# [23] = 2.50 mg/mL, 150 µL in DMSO, 15 mm agar well
# [24] = 5.00 mg/mL, 150 µL in DMSO, 15 mm agar well
# [25] = 10.0 mg/mL, 150 µL in DMSO, 15 mm agar well
structure (smiles),measurement,setting,value
"Cc1ccc(S(=O)(=O)NC(=O)Nc2ccc(OC(F)(F)F)cc2)cc1 [Compound 8, 4-Methyl-N-[(4-{trifluoromethoxy}phenyl)carbamoyl]benzenesulfonamide]",Inhibition zones diameter,"Bacillus mycoides [1]; B. mycoides, 200 μL of 10 mg/mL in DMSO in 15 mm holes, overnight 37 °C",37 ± 0.23 mm
same,zone of inhibition at 10000 µg/mL,"Bacillus mycoides [1]; Bacillus mycoides, read-out: Inhibition zones diameter",37 mm
same,zone of inhibition at 10000 µg/mL,Escherichia coli [2],29 ± 0.44 mm
same,Inhibition zones diameter,"Candida albicans [3]; C. albicans, 200 μL of 10 mg/mL in DMSO in 15 mm holes, overnight 37 °C",38 ± 0.67 mm
same,zone of inhibition at 10000 µg/mL,"Candida albicans [3]; Candida albicans, read-out: Inhibition zones diameter",38 mm
same,zone of inhibition at 4.88 µg/mL,Bacillus mycoides [4]; read-out: Inhibition zone,17 mm
same,zone of inhibition at 9.75 µg/mL,Bacillus mycoides [4]; read-out: Inhibition zone,17 mm
same,zone of inhibition at 19.5 µg/mL,Bacillus mycoides [4]; read-out: Inhibition zone,17 mm
same,zone of inhibition at 39.1 µg/mL,Bacillus mycoides [4]; read-out: Inhibition zone,17 mm
same,zone of inhibition at 78.1 µg/mL,Bacillus mycoides [4]; read-out: Inhibition zone,17 mm
same,zone of inhibition at 156.3 µg/mL,Bacillus mycoides [4]; read-out: Inhibition zone,17 mm
same,zone of inhibition at 312.5 µg/mL,Bacillus mycoides [4]; read-out: Inhibition zone,20 mm
same,zone of inhibition at 625 µg/mL,Bacillus mycoides [4]; read-out: Inhibition zone,23 mm
same,zone of inhibition at 1250 µg/mL,Bacillus mycoides [4]; read-out: Inhibition zone,26 mm
same,zone of inhibition at 2500 µg/mL,Bacillus mycoides [4]; read-out: Inhibition zone,27 mm
same,zone of inhibition at 5000 µg/mL,Bacillus mycoides [4]; read-out: Inhibition zone,27 mm
same,zone of inhibition at 10000 µg/mL,Bacillus mycoides [4]; read-out: Inhibition zone,32 mm
same,MIC,Bacillus mycoides [4]; [13],4.88 µg/mL
same,zone of inhibition at 4.88 µg/mL,Escherichia coli [5]; [14],16 mm
same,zone of inhibition at 9.75 µg/mL,Escherichia coli [5]; [15],17 mm
same,zone of inhibition at 19.5 µg/mL,Escherichia coli [5]; [16],17 mm
same,zone of inhibition at 39.1 µg/mL,Escherichia coli [5]; [17],18 mm
same,zone of inhibition at 78.1 µg/mL,Escherichia coli [5]; [18],18 mm
same,zone of inhibition at 156.3 µg/mL,Escherichia coli [5]; [19],19 mm
same,zone of inhibition at 312.5 µg/mL,Escherichia coli [5]; [20],23 mm
same,zone of inhibition at 625 µg/mL,Escherichia coli [5]; [21],25 mm
same,zone of inhibition at 1250 µg/mL,Escherichia coli [5]; [22],27 mm
same,zone of inhibition at 2500 µg/mL,Escherichia coli [5]; [23],28 mm
same,zone of inhibition at 5000 µg/mL,Escherichia coli [5]; [24],29 mm
same,zone of inhibition at 10000 µg/mL,Escherichia coli [5]; [25],32 mm
same,MIC,Escherichia coli [5]; [13],4.88 µg/mL
same,zone of inhibition at 4.88 µg/mL,Candida albicans [6]; [14],16 mm
same,zone of inhibition at 9.75 µg/mL,Candida albicans [6]; [15],17 mm
same,zone of inhibition at 19.5 µg/mL,Candida albicans [6]; [16],17 mm
same,zone of inhibition at 39.1 µg/mL,Candida albicans [6]; [17],17 mm
same,zone of inhibition at 78.1 µg/mL,Candida albicans [6]; [18],18 mm
same,zone of inhibition at 156.3 µg/mL,Candida albicans [6]; [19],23 mm
same,zone of inhibition at 312.5 µg/mL,Candida albicans [6]; [20],25 mm
same,zone of inhibition at 625 µg/mL,Candida albicans [6]; [21],27 mm
same,zone of inhibition at 1250 µg/mL,Candida albicans [6]; [22],28 mm
same,zone of inhibition at 2500 µg/mL,Candida albicans [6]; [23],30 mm
same,zone of inhibition at 5000 µg/mL,Candida albicans [6]; [24],32 mm
same,zone of inhibition at 10000 µg/mL,Candida albicans [6]; [25],34 mm
same,MIC,Candida albicans [6]; [13],4.88 µg/mL
same,mortality at 100 µg/mL,"[7]; A549, 48 h, 100 μg/mL",100%
same,IC50,"[7]; MTT, 48 h",55.8 ± 0.11 µM
same,mortality at 100 µg/mL,"colon cancer (HCT116); HCT-116, 48 h, 100 μg/mL",100%
same,IC50,"colon cancer (HCT116); HCT-116, MTT, 48 h",47.3 ± 0.91 µM
same,mortality at 100 µg/mL,prostate cancer (PC3); 100 μg/mL,100%
same,IC50,prostate cancer (PC3); MTT,57.2 ± 0.39 µM
same,mortality at 100 µg/mL,skin cancer (A431),27.5 ± 0.64%
same,mortality at 100 µg/mL,[8]; 100 μg/mL,100%
same,IC50,[8]; MTT,74 ± 0.29 µM
same,mortality at 100 µg/mL,[9],> 50%
same,mortality at 100 µg/mL,[10]; 100 μg/mL,100%
same,IC50,[10]; MTT,22.4 ± 0.49 µM
same,"mortality at 48 h, 100 µg/mL",in vitro,6.2 ± 1.54%
same,EGFR gene expression level,EGFR,significant reduction
same,KRAS gene expression level,KRAS,significant reduction
same,DNA damaged cells % (mean ± SEM),A549 [11],24.75 ± 1.03^a %
same,"Class 0 (no tail), number of cells",A549 [11]; of 400 cells analyzed,301
same,"Class 1 (tail length < diameter of nucleus), number of cells",A549 [11]; of 400 cells analyzed,39
same,"Class 2 (tail length between 1 and 2 × the diameter of nucleus), number of cells",A549 [11]; of 400 cells analyzed,38
same,"Class 3 (tail length > 2 × the diameter of nucleus), number of cells",A549 [11]; of 400 cells analyzed,22
same,"No. of cells, Comets",A549 [11]; of 400 cells analyzed,99
same,Change (DNA fragmentation versus untreated cells),A549 [12],22.8
same,DNA fragmentation % M ± SEM,"A549 [12]; IC50 concentration, 24 h",34.2 ± 0.57^a %
same,Inhibition,A549 [12]; doxorubicin = 0.0,16.92
